Laboratory results: patent publication US11780830B2, “Triazolone derivatives or salts thereof and pharmaceutical compositions comprising the same” (YUHAN CORPORATION, priority 2018, dated 2023)

What was measured:
Format in all cases: biochemical
[1] = biological target: T1, recombinant human MAO-B (monoamine oxidase-B) (Homo sapiens, UniProt P27338); assay: Activity on recombinant human MAO-B, method similar to the VAP-1 assay; conditions: substrate 1 mM benzylamine; read-out: Inhibitory Activity (IC50, nM) MAO-B
T1 construct: purchased Sigma-Aldrich
T1 sequence (P27338 1-520): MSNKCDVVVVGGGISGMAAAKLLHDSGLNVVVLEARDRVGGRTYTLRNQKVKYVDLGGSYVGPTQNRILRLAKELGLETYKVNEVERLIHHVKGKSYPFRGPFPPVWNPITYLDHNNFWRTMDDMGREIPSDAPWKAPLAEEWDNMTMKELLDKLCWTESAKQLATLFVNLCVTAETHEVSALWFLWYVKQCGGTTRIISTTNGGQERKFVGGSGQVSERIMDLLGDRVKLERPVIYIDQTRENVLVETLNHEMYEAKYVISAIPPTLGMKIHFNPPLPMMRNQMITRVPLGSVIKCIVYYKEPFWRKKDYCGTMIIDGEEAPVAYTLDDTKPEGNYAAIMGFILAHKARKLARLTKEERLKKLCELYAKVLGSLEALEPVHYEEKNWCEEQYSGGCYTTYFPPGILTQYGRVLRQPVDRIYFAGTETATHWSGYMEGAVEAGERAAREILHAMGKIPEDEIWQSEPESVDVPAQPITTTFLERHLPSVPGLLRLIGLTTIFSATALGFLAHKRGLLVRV
In short: (§1)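 Amplex Red/HRP coupled read-out of H2O2 with 0.5 mM tyramine for MAO-A or 1 mM benzylamine for MAO-B, following a 30-min compound–enzyme preincubation at 37° C. IC50 from percent inhibition of signal rate relative to uninhibited control.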

recombinant human VAP-1 = biological target: T2, recombinant human VAP-1 (Homo sapiens, UniProt Q16853); assay: Activity on recombinant human VAP-1, HRP-coupled Amplex Red hydrogen peroxide assay; conditions: substrate 1 mM benzylamine; compound incubated with enzyme at 37° C. for 30 minutes; pH 7.4; read-out: Inhibitory Activity (IC50, nM) human VAP-1
T2 construct: purchased R&D systems
T2 sequence (Q16853 1-763): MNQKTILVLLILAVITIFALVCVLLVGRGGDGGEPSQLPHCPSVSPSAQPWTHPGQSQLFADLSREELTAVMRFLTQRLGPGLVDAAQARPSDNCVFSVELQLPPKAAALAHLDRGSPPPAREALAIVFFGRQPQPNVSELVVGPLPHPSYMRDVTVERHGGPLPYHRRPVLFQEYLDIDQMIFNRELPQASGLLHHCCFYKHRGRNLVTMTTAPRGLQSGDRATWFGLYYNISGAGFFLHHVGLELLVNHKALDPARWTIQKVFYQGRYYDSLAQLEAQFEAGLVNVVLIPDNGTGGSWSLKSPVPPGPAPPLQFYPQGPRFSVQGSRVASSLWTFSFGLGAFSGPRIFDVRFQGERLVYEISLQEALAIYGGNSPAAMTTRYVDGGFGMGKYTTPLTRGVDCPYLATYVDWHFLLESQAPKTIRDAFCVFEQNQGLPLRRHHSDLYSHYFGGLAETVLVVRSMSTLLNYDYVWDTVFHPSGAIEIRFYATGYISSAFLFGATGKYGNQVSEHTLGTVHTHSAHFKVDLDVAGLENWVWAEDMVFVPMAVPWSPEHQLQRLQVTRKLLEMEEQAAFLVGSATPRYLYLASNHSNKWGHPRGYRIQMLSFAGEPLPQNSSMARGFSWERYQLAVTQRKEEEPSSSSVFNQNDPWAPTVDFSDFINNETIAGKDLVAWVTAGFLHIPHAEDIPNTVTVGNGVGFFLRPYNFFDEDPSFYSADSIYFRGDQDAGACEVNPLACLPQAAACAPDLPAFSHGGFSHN
In short: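 Dose-response IC50 determined from reduction in resorufin signal rate (544/590 nm, 1-2 h), with 30 min compound preincubation at 37 °C and 1 mM benzylamine as substrate.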

[2] = biological target: T3, recombinant human DAO (diamine oxidase) (Homo sapiens, UniProt P19801); assay: Activity on recombinant human DAO, method similar to the VAP-1 assay; conditions: substrate 1 mM putrescine; read-out: Inhibitory Activity (IC50, nM) DAO
T3 construct: purchased R&D systems
T3 sequence (P19801 20-751): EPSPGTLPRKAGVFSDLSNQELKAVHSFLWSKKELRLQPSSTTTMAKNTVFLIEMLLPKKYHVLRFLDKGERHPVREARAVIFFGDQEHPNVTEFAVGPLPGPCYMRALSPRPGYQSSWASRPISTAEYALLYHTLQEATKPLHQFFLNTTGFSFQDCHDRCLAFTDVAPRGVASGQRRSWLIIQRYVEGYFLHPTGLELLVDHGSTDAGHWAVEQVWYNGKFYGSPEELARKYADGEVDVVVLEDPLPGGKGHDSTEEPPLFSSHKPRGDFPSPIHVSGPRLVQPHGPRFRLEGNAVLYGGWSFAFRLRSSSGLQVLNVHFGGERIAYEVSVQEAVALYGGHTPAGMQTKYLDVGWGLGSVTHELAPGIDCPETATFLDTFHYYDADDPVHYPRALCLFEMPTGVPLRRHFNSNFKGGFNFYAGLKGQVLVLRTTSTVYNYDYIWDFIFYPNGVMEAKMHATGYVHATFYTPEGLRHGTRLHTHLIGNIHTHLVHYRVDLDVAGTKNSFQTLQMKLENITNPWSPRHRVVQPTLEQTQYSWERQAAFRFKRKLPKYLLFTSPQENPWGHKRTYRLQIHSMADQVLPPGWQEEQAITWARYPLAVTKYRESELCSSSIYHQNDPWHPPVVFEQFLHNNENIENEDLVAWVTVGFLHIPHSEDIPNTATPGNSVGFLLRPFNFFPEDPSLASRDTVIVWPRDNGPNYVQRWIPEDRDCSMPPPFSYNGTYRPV
In short: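 Inhibition of recombinant human diamine oxidase (DAO, R&D systems) was assessed by the same approach as the VAP-1 assay, using 1 mM putrescine as substrate. Hydrogen peroxide formed was detected through an HRP-coupled Amplex Red reaction yielding fluorescent resorufin, read at 544 nm excitation and 590 nm emission. IC50 values came from four-parameter logistic fitting in GraphPad Prism.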

[3] = biological target: T4, recombinant human MAO-A (monoamine oxidase-A) (Homo sapiens, UniProt P21397); assay: Activity on recombinant human MAO-A, method similar to the VAP-1 assay; conditions: substrate 0.5 mM tyramine; read-out: Inhibitory Activity (IC50, nM) MAO-A
T4 construct: purchased Sigma-Aldrich
T4 sequence (P21397 1-527): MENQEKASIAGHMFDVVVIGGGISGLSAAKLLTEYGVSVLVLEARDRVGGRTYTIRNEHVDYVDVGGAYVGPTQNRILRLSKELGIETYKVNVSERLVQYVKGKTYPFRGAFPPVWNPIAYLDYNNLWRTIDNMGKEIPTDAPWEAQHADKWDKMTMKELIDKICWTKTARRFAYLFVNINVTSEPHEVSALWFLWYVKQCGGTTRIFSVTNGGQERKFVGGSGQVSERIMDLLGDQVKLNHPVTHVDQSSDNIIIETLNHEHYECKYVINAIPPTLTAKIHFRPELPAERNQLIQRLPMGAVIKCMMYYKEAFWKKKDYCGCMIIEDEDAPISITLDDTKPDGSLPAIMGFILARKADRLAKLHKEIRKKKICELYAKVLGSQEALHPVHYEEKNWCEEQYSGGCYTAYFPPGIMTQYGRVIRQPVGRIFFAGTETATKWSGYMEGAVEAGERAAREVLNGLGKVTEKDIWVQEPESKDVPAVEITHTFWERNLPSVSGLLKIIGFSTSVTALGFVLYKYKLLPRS
In short: as §1

Molecule `NC/C(=C\F)Cn1ncn(Cc2ccc(-c3cccc(-c4cc[nH]n4)c3)s2)c1=O` [Example 184, 2-[(2E)-2-(aminomethyl)-3-fluoroprop-2-en-1-yl]-4-({5-[3-(1H-pyrazol-3-yl)phenyl]thiophen-2-yl}methyl)-2,4-dihydro-3H-1,2,4-triazol-3-one] has an IC50 [1] of 330 nM, an IC50 (recombinant human VAP-1) of 3.4 nM and an IC50 [2] of 3800 nM. It also gave an IC50 [3] greater than 100000 nM.

For `CC(C)Oc1ccc(-c2ccc(Cn3cnn(C/C(=C/F)CN)c3=O)s2)cn1` [Example 185, 2-[(2E)-2-(aminomethyl)-3-fluoroprop-2-en-1-yl]-4-({5-[6-(propan-2-yloxy)pyridin-3-yl]thiophen-2-yl}methyl)-2,4-dihydro-3H-1,2,4-triazol-3-one], the IC50 [1] was 310 nM, the IC50 (recombinant human VAP-1) was 2.7 nM and the IC50 [2] was 730 nM. For the same molecule, the IC50 [3] was greater than 100000 nM.

`Cn1cc(-c2ccc(Cn3cnn(C/C(=C/F)CN)c3=O)s2)ccc1=O` [Example 187, 5-[5-({1-[(2E)-2-(aminomethyl)-3-fluoroprop-2-en-1-yl]-5-oxo-1,5-dihydro-4H-1,2,4-triazol-4-yl}methyl)thiophen-2-yl]-1-methylpyridin-2(1H)-one] was tested, and the IC50 [1] was 1600 nM, the IC50 (recombinant human VAP-1) was 1.3 nM and the IC50 [2] was 1800 nM. It also gave an IC50 [3] greater than 100000 nM.

In the case of `CS(=O)(=O)CCn1cc(-c2ccc(Cn3cnn(C/C(=C/F)CN)c3=O)s2)ccc1=O` [Example 188, 5-[5-({1-[(2E)-2-(aminomethyl)-3-fluoroprop-2-en-1-yl]-5-oxo-1,5-dihydro-4H-1,2,4-triazol-4-yl}methyl)thiophen-2-yl]-1-[2-(methylsulfonyl)ethyl]pyridin-2(1H)-one], the IC50 [1] is reported as greater than 10000 nM, the IC50 (recombinant human VAP-1) is reported as 4.2 nM and the IC50 [2] is reported as 450 nM. For the same molecule, the IC50 [3] was greater than 100000 nM.

Molecule `CC(=O)Nc1nc2cc(-c3ccc(Cn4cnn(C/C(=C/F)CN)c4=O)s3)ccc2s1` [Example 189, N-{5-[5-({1-[(2E)-2-(aminomethyl)-3-fluoroprop-2-en-1-yl]-5-oxo-1,5-dihydro-4H-1,2,4-triazol-4-yl}methyl)thiophen-2-yl]-1,3-benzothiazol-2-yl}acetamide] has an IC50 [1] of 420 nM, an IC50 (recombinant human VAP-1) of 0.7 nM and an IC50 [2] of 780 nM. It also gave an IC50 [3] of 22500 nM.

`NC/C(=C\F)Cn1ncn(Cc2ccc(-c3cnn(C4CCNCC4)c3)s2)c1=O` [Example 190, 2-[(2E)-2-(aminomethyl)-3-fluoroprop-2-en-1-yl]-4-({5-[1-(piperidin-4-yl)-1H-pyrazol-4-yl]thiophen-2-yl}methyl)-2,4-dihydro-3H-1,2,4-triazol-3-one] gave an IC50 [1] greater than 100000 nM, an IC50 (recombinant human VAP-1) of 3.8 nM and an IC50 [2] of 1800 nM. For the same molecule, the IC50 [3] was greater than 100000 nM.

`NC/C(=C\F)Cn1ncn(Cc2ccc(-c3ccc(=O)n(Cc4ccccc4)c3)s2)c1=O` [Example 191, 5-[5-({1-[(2E)-2-(aminomethyl)-3-fluoroprop-2-en-1-yl]-5-oxo-1,5-dihydro-4H-1,2,4-triazol-4-yl}methyl)thiophen-2-yl]-1-benzylpyridin-2(1H)-one] gave an IC50 [1] of 1500 nM, an IC50 (recombinant human VAP-1) of 1.1 nM and an IC50 [2] of 130 nM. It also gave an IC50 [3] greater than 100000 nM.

For `NC/C(=C\F)Cn1ncn(Cc2ccc(-c3ccc4nsnc4c3)s2)c1=O` [Example 192, 2-[(2E)-2-(aminomethyl)-3-fluoroprop-2-en-1-yl]-4-{[5-(2,1,3-benzothiadiazol-5-yl)thiophen-2-yl]methyl}-2,4-dihydro-3H-1,2,4-triazol-3-one], the IC50 [1] was 120 nM, the IC50 (recombinant human VAP-1) was 1 nM and the IC50 [2] was 310 nM. The IC50 [3] was greater than 100000 nM.

Molecule `NC/C(=C\F)Cn1ncn(Cc2ccc(-c3ccc4c(c3)COC4)s2)c1=O` [Example 193, 2-[(2E)-2-(aminomethyl)-3-fluoroprop-2-en-1-yl]-4-{[5-(1,3-dihydro-2-benzofuran-5-yl)thiophen-2-yl]methyl}-2,4-dihydro-3H-1,2,4-triazol-3-one] has an IC50 [1] of 85 nM, an IC50 (recombinant human VAP-1) of 1 nM and an IC50 [2] of 2000 nM. It also gave an IC50 [3] greater than 100000 nM.

`CCn1cc(-c2ccc(Cn3cnn(C/C(=C/F)CN)c3=O)s2)ccc1=O` [Example 194, 5-[5-({1-[(2E)-2-(aminomethyl)-3-fluoroprop-2-en-1-yl]-5-oxo-1,5-dihydro-4H-1,2,4-triazol-4-yl}methyl)thiophen-2-yl]-1-ethylpyridin-2(1H)-one] was tested, and the IC50 [1] was 1500 nM, the IC50 (recombinant human VAP-1) was 1.6 nM and the IC50 [2] was 1200 nM. For the same molecule, the IC50 [3] was greater than 100000 nM.

For `NC/C(=C\F)Cn1ncn(Cc2ccc(-c3ccc(=O)n(C4CC4)c3)s2)c1=O` [Example 195, 5-[5-({1-[(2E)-2-(aminomethyl)-3-fluoroprop-2-en-1-yl]-5-oxo-1,5-dihydro-4H-1,2,4-triazol-4-yl}methyl)thiophen-2-yl]-1-cyclopropylpyridin-2(1H)-one], the IC50 [1] was 2300 nM, the IC50 (recombinant human VAP-1) was 1.6 nM and the IC50 [2] was 710 nM. It also gave an IC50 [3] greater than 100000 nM.

`CCS(=O)(=O)c1ccc(-c2ccc(Cn3cnn(C/C(=C/F)CN)c3=O)s2)cc1` [Example 196, 2-[(2E)-2-(aminomethyl)-3-fluoroprop-2-en-1-yl]-4-({5-[4-(ethylsulfonyl)phenyl]thiophen-2-yl}methyl)-2,4-dihydro-3H-1,2,4-triazol-3-one] was tested, and the IC50 [1] was 4700 nM, the IC50 (recombinant human VAP-1) was 2.3 nM and the IC50 [2] was 230 nM. It also gave an IC50 [3] greater than 100000 nM.
